Results from patent EP2724723A1, “Tegaserod for use in the treatment of nerve injuries” (Universitätsklinikum Hamburg-Eppendorf, priority 2012, dated 2014).

How the values were obtained:
anti-PSA antibody 735 = assay: Competition ELISA: antibody 735 binding to immobilized PSA mimicking peptide
Method: To confirm that the compounds identified in the screening from Example 1 are indeed PSA mimetics, binding of tegaserod maleate ((E)-but-2-enedioic acid; 1-[[(Z)-(5-methoxyindol-3-ylidene) methyl]amino]-2-pentylguanidine; hereafter termed tegaserod) and the control compound nitrendipine (5-O-ethyl 3-O-methyl-2,6-dimethyl-4-(3-nitrophenyl)-1,4-dihydropyridine-3,5-dicarboxylate) to the PSA antibody 735 was analyzed by competition ELISA. 384-well flat bottom microtiter plates (Corning Life Sciences) were coated in triplicates with 25 µl of PSA mimicking peptide coupled to catalase (3 µg/ml) or PBS alone at 4°C overnight. All following steps were carried out at room temperature. After blocking with 1% BSA in PBS for 1 h, the wells were washed three times for 5 min with PBS containing 0.05% Tween-20 (PBST). Wells were incubated with increasing concentrations of tegaserod and nitrendipine, pre-incubated with anti-PSA antibody 735 (0.1 µg/ml) for 1 h. […] The reaction was stopped by addition of 50 µl 2.5 M H2SO4 and quantified using an ELISA reader (µQuant, Bio-TEK, Winooski, VT, USA) at 490 nm and the software KCjunior (Bio-TEK).

[1] = system: PSA specific monoclonal antibody 735; assay: Surface plasmon resonance competition experiment (BIAcore 3000); format: binding; conditions: compared to antibody not mixed with tegaserod; antibody 10 nM pre-incubated with 1-30 µM compound; Figure 1B
Method: The running buffer was phosphate-buffered saline (PBS, pH 7.4). PSA mimicking peptide coupled to catalase was covalently immobilized to CM5 sensor chips (carboxymethyl dextran; GE Healthcare Europe GmbH) via primary amino groups, using standard coupling protocols (Karlsson et al. (1991); J. Immunol. Methods 145 (1-2): 229-240. In brief, the sensor surface was activated by a 7-min pulse of 0.2 M N-ethyl-N-(3-dimethylaminopropyl) carbodiimide and 50 mM N-hydroxysuccinimide. The PSA peptide solution (10 nM in 10 mM sodium acetate, pH 5.2) was then injected for 5-10 min. Ethanolamine (1 M, pH 8.5) was used to block remaining activated carboxyl groups. Ligand densities of 100-150 fmol/mm^2 were reached. Immobilized control peptide (10 nM PSA scrambled peptide coupled to catalase) was used as a reference surface. […] The data were analyzed using the BIAevaluation 3.0 software. All sensorgrams were corrected for background and bulk refractive index by subtraction of the reference.
To confirm that tegaserod binds specifically to antibody 735, a competition experiment was performed. First, the PSA specific monoclonal antibody 735 (10 nM) was pre-incubated for 1 h at room temperature with different molar concentrations (1, 2, 5, 8, 15 and 30 µM) of tegaserod or control compound. Then the antibody/organic compound solutions were injected ([…]) to the PSA peptide-coupled chip. […]

[2] = system: murine cerebellar granule neurons (cGNs), Schwann cells, and motoneurons; assay: In vitro neurite/process outgrowth, statements covering all cell types; format: cell-based, C57BL/6J mice
Method: (§1) Primary cultures of cerebellar neurons or Schwann cells were prepared from cerebellum or dorsal root ganglia of 7-day-old C57BL/6J mice as described in Mehanna et al. (2009), Brain, 132 (Pt 6): 1449-62 and Loers et al. (2005), J. Neurochem., 92(6): 1463-76. Motoneurons were prepared from E14 C57BL/6J mice as described in Simova et al. (2006), Ann. Neurol., 60(4): 430-437. In brief, 48-well plates were coated with 0.01% poly-L-lysine (PLL) or poly-L-ornithine (PLO) overnight at 4°C, washed twice with water and air-dried. Directly before use, plates were washed twice with PBS, and Schwann cells, cerebellar neurons (PLL) or motoneurons (PLO) were seeded at a density of 1.25 x 10^4 (Schwann cells and motoneurons) or 2.5 x 10^4 cells (cerebellar neurons) per well in 250 µl of corresponding serum-free culture medium. Soluble organic compounds were added to the culture 1 h after seeding in increasing concentrations. After maintenance for 24 h at 37°C, cells were fixed with 2.5% glutaraldehyde and stained with 1% methylene blue/toluidine blue in 1% borax. Morphological quantification of neurite or process lengths was performed as described in Mehanna et al. (2009), see above. Schwann cell processes and neurites of cerebellar neurons with a length of at least one cell body diameter were counted and total neurite or process length per cell was determined by counting 50 cells in each of two wells per experiment. At least three independent experiments were performed for each culture. Also, the activity of tegaserod with the PSA peptide mimic and the bacterial PSA analogue, colominic acid, on neurite and process extension experiments was compared.

murine motoneurons = assay: In vitro neurite outgrowth of motoneurons; format: cell-based, C57BL/6J mice; conditions: tegaserod, cisapride, GR113808 100 nM; colominic acid 3 µM; PSA mimicking peptide 30 µM; Figure 2B
Method: as §1

Schwann cells = assay: In vitro process outgrowth of Schwann cells; format: cell-based, C57BL/6J mice; conditions: compared to control; Figure 2C, D
Method: as §1, with “After maintenance for 24 h at 37°C, cells were fixed with 2.5% glutaraldehyde and stained with 1% methylene blue/toluidine blue in 1% borax.” left out, “At least three independent experiments were performed for each culture. Also, the activity of tegaserod with the PSA peptide mimic and the bacterial PSA analogue, colominic acid, on neurite and process extension experiments was compared.” left out

quadriceps muscle = assay: Quadriceps muscle mass after femoral nerve injury; format: in vivo, C57BL/6J mice; conditions: 15 week recovery, control group 111 mg
Method: Tegaserod was evaluated in a 2 mm femoral nerve defect of 12-week old C57BL/6J mice as previously described in Mehanna et al. (2009), see above. Briefly, mice were anesthetized and the femoral nerve of the left rear leg exposed. The nerve was bis-sected 3 mm proximal to the branching of the saphenous and motor branches, and the nerve ends were sutured 0.5 mm into a 3 mm polyethylene conduits with 0.58 mm inner diameter (Becton Dickinson), leaving an overall gap length of 2 mm. Conduits were filled with PuraMatrix peptide hydrogel (Becton Dickinson 354250) using 2x PBS as the gelation stimulant. Tegaserod was dissolved in the 2x PBS at concentrations of 500 nM and 5,000 nM, resulting in final concentrations of 250 nM and 2,500 nM once the PBS was combined 1:1 v/v with the PuraMatrix.
The quadriceps muscle, which is solely innervated by the femoral nerve, was extracted from each mouse and weighed at the end of the 15 week recovery period. The quadriceps muscles were removed from the injured and uninjured hind limbs of the mice. The quadriceps femoris muscle was identified by first removing the skin overlying the cranial thigh. The muscle was bluntly dissected starting distally at the level of the patellar tendon, working proximally. […]

[H]/N=C(/NCCCCC)N/N=C/c1c[nH]c2ccc(OC)cc12 [tegaserod, (E)-but-2-enedioic acid; 1-[[(Z)-(5-methoxyindol-3-ylidene)methyl]amino]-2-pentylguanidine]
concentration of maximal inhibition of binding of mAb 735 with the PSA peptide mimic (anti-PSA antibody 735; competition ELISA, Figure 1A): approximately 100 nM | inhibition of binding of mAb 735 with the PSA peptide mimic (in words) (anti-PSA antibody 735; increasing concentrations, pre-incubated with antibody 735 (0.1 µg/ml) for 1 h): inhibit binding of mAb 735 with the PSA peptide mimic in a dose dependent manner | disruption of the capability of mAb 735 to bind to the PSA peptide mimic bound to the chip surface [1]: 80% | minimal effective concentration ([2]; Mus musculus, Neuron, 24 h, dose-response curve, Figure 2A, read-out: concentration at which an effect on neurite and process extension was shown): 0.001 µM | concentration of optimal effect on neurite and process extension ([2]; all cell types, Figure 2A): 100 nM | concentration of maximal stimulatory effects ([2]; neurite and process extension of neurons and Schwann cells): 10 to 250 nM | effect of overdosing / higher concentrations (in words) ([2]; neurons and Schwann cells): the stimulatory effect was reduced or even abolished | times more effective than colominic acid in stimulating process formation ([2]; neurons and Schwann cells): about 20 times | times more effective than the PSA mimicking peptide in stimulating process formation ([2]; neurons and Schwann cells): about 200 times | effect on neurite extension of murine motoneurons (in words) (murine motoneurons): significant stimulatory effect | effect on process outgrowth of Schwann cells (in words) (Schwann cells): significantly enhance neurite/process outgrowth compared to control | average quadriceps muscle mass, injured limb (quadriceps muscle; 250 nM, non-injured legs 208 mg): 165 mg | quadriceps muscle mass, injured limb (quadriceps muscle; 2,500 nM, failed to reach statistical significance): 127 mg
